Our source for the outcome, EC50 and IC50 values is PubChem BioAssay AID179 (DTP/NCI, 2004).

The structures appear in SMILES notation. The source made the active and inactive calls.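 Rule for the calls: active = compounds giving half or more protection of infected cells from virus-caused growth loss, again on retest; inactive = the rest.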 Where a SMILES comes first, the peptide text is derived from it. Bounds are passed on as bounds.

The experiment relates to CEM cells HIV-1 protection, formazan growth assay. The experiment is described as follows: NCI AIDS Antiviral Assay. As to conditions: for IC50: measured here: growth of uninfected CEM cells. In a few lines: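 Category rules: moderately active means at least 50% protection on retest, and confirmed active means 100% protection reproducibly. The underlying data came from a formazan growth assay in HIV-1-infected CEM cells.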

The EC50 is the concentration that produces a half-maximal response. In general, IC50 refers to the concentration that gives 50% inhibition. A higher IC50 goes with weaker potency.

For the compound `O=CNc1ccc(S(=O)(=O)c2ccc(NC=O)cc2)cc1`, the result was inactive.

In the case of `NC1=C(c2ccccc2)C(=O)c2ccccc21`, the EC50 was more than 61.7 µM and the IC50 was more than 61.7 µM.

`COC(=O)N1C2c3ccccc3C(c3ccccc32)N1C(=O)OC`: the EC50 is more than 200 µM and the IC50 is more than 200 µM.

Take `N[C@@H](CCC(=O)NC(Cc1ccccc1)C(=O)NCP(=O)(O)O)C(=O)O` (some centres undefined): the EC50 was more than 200 µM and the IC50 is more than 200 µM.

As to `C[N+](C)(C)C.[C-]#[O+].[C-]#[O+].[C-]#[O+].[C-]#[O+].[Cr].c1ccc(N=N[N-]c2ccccc2)cc1`, the EC50 is more than 1.26 µM and the IC50 is more than 1.26 µM.

With `N#CCc1nc2ccccc2c(=O)[nH]1`, the EC50 was 17.8 µM and the IC50 is 69.2 µM.

Consider `O=C(O)C(=O)O.[NH-]C1CCCC1[NH-].[Pt+2]` (centres undefined), for which the EC50 is more than 200 µM and the IC50 is 9.55 µM.

With `COc1ccc(C(=O)CC(c2ccc3c(c2)OCO3)c2c(O)c3ccccc3oc2=O)cc1OC` (centres undefined), the EC50 was more than 200 µM and the concentration for half-maximal inhibition (IC50) came out at 89.1 µM.

For `CCOC(=O)NC(=O)c1cn(C2OC(CO)C(O)C2O)c(=O)[nH]c1=O` (centres undefined), the EC50 was more than 692 µM and the concentration for half-maximal inhibition (IC50) was more than 692 µM.

Regarding `O=[N+]([O-])/C(Cl)=C/C(=C1/Nc2ccccc2O1)[N+](=O)[O-]`, the EC50 was more than 200 µM and the IC50 amounted to 30.2 µM.

Turning to `Cc1[nH]n(-c2nc(O)c(-c3ccccc3)c(=O)[nH]2)c(=O)c1CCO`, the EC50 was more than 200 µM and the IC50 is more than 200 µM.

Take `NCCCCC1NC(=O)C(CO)NC(=O)C(Cc2cnc[nH]2)NC(=O)CNC(=O)C(Cc2c[nH]c3ccccc23)NC(=O)C(Cc2c[nH]c3ccccc23)NC(=O)C(Cc2ccccc2)NC1=O` (centres undefined) (cyclo(GHSKFWW); configuration not given here): the EC50 is more than 50.1 µM and the 50% inhibitory concentration (IC50) was more than 50.1 µM.

For the compound `C=C1CC[C@]2(C)C3CC[C@]4(C)C(C(C)CCC(=O)O)CCC4[C@@H]3CC[C@@H]2C1` (some centres undefined), the EC50 is more than 5.13 µM and the half-inhibitory concentration (IC50) is more than 5.13 µM.

On to `[C-]#[N+]CS(=O)(=O)c1ccc(C)cc1`, for which the EC50 was more than 479 µM and the half-maximal inhibitory concentration (IC50) is more than 479 µM.

For the compound `CCCCC(/C=N/Nc1ccc([N+](=O)[O-])cn1)CC` (centres undefined), the EC50 was more than 200 µM and the IC50 is more than 200 µM.

Take `CCOC(=O)/C=C/SC(C)(C)C(N)C(=O)O` (centres undefined): the EC50 is more than 1000 µM and the IC50 was more than 1000 µM.

Take `COCCOCOC(C)(C)[C@H](CCOC(C)=O)O[Si](c1ccccc1)(c1ccccc1)C(C)(C)C`: the outcome was inactive.

As to `O=C1CC2[C@@H](N3CCCC3)CCC(N1Cc1ccccc1)C2(O)O` (some centres undefined), the EC50 is more than 200 µM and the IC50 is more than 200 µM.

On to `Cc1ccc(SS(=O)(=O)c2ccc([N+](=O)[O-])cc2)cc1`, for which the EC50 is more than 60.3 µM and the IC50 was 40.7 µM.

Regarding `CCCc1cc(=O)oc2c3c(c4c(c12)OC(C)(C)CC4)OC(C)[C@H](C)[C@@H]3O` (some centres undefined), the concentration for a half-maximal effect (EC50) was 14.8 µM and the half-maximal inhibitory concentration (IC50) was determined as 15.1 µM.

Consider `CC1(C)CC(=O)c2c(nc3c(ccc4ccccc43)c2-c2ccc(NC(=O)CCCCCCCCC(=O)Nc3ccc(-c4c5c(nc6c4ccc4ccccc46)CC(C)(C)CC5=O)cc3)cc2)C1`, for which the EC50 was more than 100 µM and the 50% inhibitory concentration (IC50) is more than 100 µM.

`O=C1NC(=O)C(Cc2cccc(OCc3ccccc3)c2)C(=O)N1`: the EC50 was more than 200 µM and the half-inhibitory concentration (IC50) was more than 200 µM.

In the case of `CC(C)=CCCC1(C)C=Cc2c(c(C)cc3c2[nH]c2ccccc23)O1` (centres undefined), the EC50 was more than 21.9 µM and the IC50 was 12 µM.

For `CCOC(=O)c1ccc(NC(=O)c2cccc3c(Nc4ccc(S(=O)(=O)Nc5cc(C)on5)cc4)c4ccccc4nc23)cc1`, the EC50 was more than 200 µM and the half-maximal inhibitory concentration (IC50) is 4.57 µM.

Turning to `CCOC(CCNCC(OCC)OCC)OCC`, the EC50 was more than 200 µM and the concentration for half-maximal inhibition (IC50) was more than 200 µM.

For `O=C1c2ccccc2S(=O)(=O)c2cc(-c3nn[nH]n3)ccc21`, the EC50 was more than 200 µM and the 50% inhibitory concentration (IC50) is more than 200 µM.

Turning to `CCn1c2ccc(C(=O)CCCN3CCCCC3)cc2c2cc(C(=O)CCCN3CCCCC3)ccc21`, the EC50 is more than 43.7 µM and the half-inhibitory concentration (IC50) is 0.229 µM.

For the compound `COc1cc(C(C#N)S(=O)(=O)O)ccc1O` (centres undefined), the EC50 is more than 200 µM and the IC50 is more than 200 µM.

Take `O=C1C[C@@H](Sc2ccccc2)C2(OCCO2)C2ON3CCCC[C@H]3[C@H]12` (some centres undefined): the EC50 was more than 200 µM and the IC50 was determined as 1.82 µM.

In the case of `CC(C)CCCCCCCCCCCCC(=O)NCC(=O)NC1C(O)C(O)C(Nc2ncnc3nc[nH]c23)OC1C(O)CO` (centres undefined), the EC50 is more than 0.417 µM and the IC50 worked out at 0.00224 µM.

Turning to `COc1cc(/C=C/C(=O)CC(=O)/C=C/c2ccc(O)cc2)ccc1O`, the EC50 is more than 200 µM and the concentration for half-maximal inhibition (IC50) stood at 11.7 µM.

Consider `O=c1cc(NNc2ccccc2)[nH]c(=S)[nH]1`, for which the EC50 is more than 200 µM and the IC50 was 12.3 µM.

As for `CCC(C)C(=Nc1ccc(Cl)c(Cl)c1)N(C)C` (centres undefined), the result was inactive.

Regarding `CC(C)(C)[Si](C)(C)OCC1CCC(n2cnc3c(NC(=O)c4ccccc4)ncnc32)O1` (centres undefined), the result was inactive.

Regarding `O=C(NCCCCCCNC(=O)n1cc(F)c(=O)[nH]c1=O)NCCCOCCOCCOCCOCCOCCOCCOCCOCCOCCOCCOCCOCCOCCOCCOCCOCCOCCOCCOCCOCCOCCCNC(=O)C(O)C(O)C(O)C(O)CO` (centres undefined), the outcome was inactive.

As to `O=C(Oc1ccc(OC(=O)c2ccccc2)c(C(=O)c2ccccc2)c1C(=O)c1ccccc1)c1ccccc1`, the EC50 was more than 200 µM and the concentration for half-maximal inhibition (IC50) was more than 200 µM.

With `Cc1cc(=O)oc2cc3c(cc12)Oc1ccccc1O3`, the EC50 was more than 25.7 µM and the half-maximal inhibitory concentration (IC50) was more than 25.7 µM.

For the compound `CC[C@H](CCCC[C@H]1CC[C@@H]2CC(=O)C[C@H]12)OC`, the EC50 is more than 200 µM and the IC50 turned out to be 117 µM.

On to `O=c1ccn(-c2ccccn2)c(=O)n1-c1ccccn1`, for which the result was inactive.

In the case of `O=C(/C=C/c1ccc(O)c(O)c1)OCCOC(=O)/C=C/c1ccc(O)c(O)c1`, the EC50 was more than 200 µM and the IC50 came out at 10 µM.

For the compound `O=C1C(Cl)N(c2ccc(Cl)cc2)C1c1c[nH]c2ccccc12` (centres undefined), the EC50 is more than 204 µM and the IC50 stood at 5.13 µM.

As for `O=C1c2ccccc2Sc2ccccc2N1CCN1CCN(c2ccc(F)cc2)CC1`, the EC50 is more than 200 µM and the IC50 is more than 200 µM.

Take `c1cn[nH]c1`: the EC50 was more than 3630 µM and the IC50 came out at 1780 µM.

Take `CCOC(=O)C1(C)CC12CCCCC2` (centres undefined): the EC50 was more than 200 µM and the IC50 is more than 200 µM.

With `C=C1CCC2(C(C)=O)COC1(C)O2` (centres undefined), the result was inactive.

As to `CC1(C)[C@H](C(=O)O)N2C(=O)[C@@H](NS(=O)(=O)c3ccc([N+](=O)[O-])cc3)[C@H]2S1(=O)=O`, the EC50 was more than 200 µM and the IC50 came out at 195 µM.

In the case of `CCOC(=O)N(c1ccccc1)c1cc(=O)n2ccccc2n1`, the EC50 was more than 200 µM and the IC50 was more than 200 µM.

As to `CS/C(=N\c1nccs1)NC(=O)c1cccc(Cl)c1`, the EC50 was more than 58.9 µM and the half-maximal inhibitory concentration (IC50) was more than 58.9 µM.

`CCN(CC)CCCNc1c2cc(OC)ccc2nc2cccc([N+](=O)[O-])c12`: the EC50 was more than 2 µM and the IC50 came to 0.0407 µM.

With `COc1c2occc2c(N=Cc2c[nH]c3ccccc23)c2ccc(=O)oc12`, the EC50 was more than 50.1 µM and the concentration for half-maximal inhibition (IC50) came to 28.2 µM.

In the case of `CC1(c2ccccc2)OC(=O)c2ccccc21` (centres undefined), the EC50 was more than 200 µM and the IC50 was more than 100 µM.

For the compound `O=[N+]([O-])c1cccc(-c2csc(NNC3=NC/C(=C/c4ccc5c(c4)OCO5)S3)n2)c1`, the EC50 was more than 200 µM and the half-inhibitory concentration (IC50) stood at 117 µM.

For `C[n+]1c2cc(N)ccc2cc2ccc(N)cc21` (tested in a mixture with another compound), the EC50 is more than 200 µM and the IC50 is 0.316 µM.

In the case of `Nc1ccc(C(=O)NN2C(=O)C(Cl)C2c2ccccc2)cc1` (centres undefined), the EC50 was more than 200 µM and the IC50 was 47.9 µM.

Regarding `CC(C)/C(Cl)=N\OC(=O)Nc1cccc(F)c1`, the EC50 was more than 200 µM and the IC50 worked out at 9.77 µM.

As to `Nc1nc([O-])c2c(n1)[n+](C1OC(CO)C(O)C1O)cn2CCO` (centres undefined), the EC50 was more than 759 µM and the IC50 is more than 759 µM.

`O=c1[nH]c2ccccc2c(O)c1CCCC1CCCCC1`: the EC50 was more than 200 µM and the concentration for half-maximal inhibition (IC50) is 132 µM.

For the compound `COc1ccc2cc1Oc1ccc(cc1)C[C@H]1c3cc(c(OC)cc3CCN1C)Oc1c(O)c(OC)cc3c1[C@H](C2)N(C)CC3`, the result was inactive.

`Cc1c(NC(=O)C(=O)N=NC(=O)c2ccncc2)c(O)c2ccccc2c1O`: the result was inactive.

For the compound `O=C(c1ccccc1)C(O)(c1ccccc1)C(c1ccccc1)c1ccccc1` (centres undefined), the EC50 was more than 26.3 µM and the half-maximal inhibitory concentration (IC50) was more than 26.3 µM.

For `[N-]=[N+]=NC1CC(n2cc(Cc3ccccc3)c(=O)[nH]c2=O)OC1COC(=O)CCC(=O)O` (centres undefined), the EC50 was more than 562 µM and the IC50 is more than 562 µM.

Regarding `O=c1[nH]c(=S)[nH]c2[nH]c(=S)[nH]c12`, the EC50 is more than 200 µM and the IC50 was more than 200 µM.

On to `CCCCCC#CCOC(=O)C(=[N+]=[N-])P(=O)(c1ccccc1)c1ccccc1`, for which the EC50 was more than 200 µM and the IC50 is 95.5 µM.

Turning to `COc1cc(C)cc2c1OC(c1ccccc1)CC2=O` (centres undefined), the EC50 is more than 200 µM and the half-inhibitory concentration (IC50) worked out at 52.5 µM.

For the compound `C/C(=N\NC(N)=O)c1sc(-c2nc(C)c(/C(C)=N/NC(N)=O)s2)nc1C`, the EC50 is more than 9.55 µM and the IC50 was more than 9.55 µM.

As for `CO[C@@H]1/C=C\C=C(/C)C(=O)NC2=CC(=O)C(NCCN(C)C)=C(C[C@@H](C)C[C@@H](OC)[C@@H](O)[C@H](C)/C=C(\C)[C@H]1OC(N)=O)C2=O`, the EC50 was more than 2 µM and the IC50 was determined as 0.102 µM.

As for `O=C1c2ccccc2Sc2ccccc2N1CCCCCN1CCN(c2ccc(F)cc2)CC1`, the EC50 was more than 200 µM and the half-maximal inhibitory concentration (IC50) worked out at 8.91 µM.

Turning to `CC(C)/C(Cl)=N\OC(=O)Nc1cccc(Cl)c1`, the EC50 was more than 200 µM and the IC50 worked out at 5.01 µM.

With `CCn1c(=O)c2c3ccc(OC)cc3[nH]c2c2ccc(OC)cc21`, the EC50 is more than 200 µM and the IC50 worked out at 56.2 µM.
